Data on 7 compounds can be found in PMC10746543, “Design principles for cyclin K molecular glue degraders” (Nature Chemical Biology, 2023).

By EC50 is commonly meant the concentration at which the effect is half-maximal. The DC50 is the concentration at which degradation of the target reaches its halfway point.

One test has as its system HEK293T cells. As to the kind of experiment: Drug sensitivity assay (CellTiter-Glo viability) with or without MLN4924 pretreatment. The test is classed as cell-based, human. As to conditions: Supplementary Table 2; for EC50: Homo sapiens, HEK-293T, HEK293T viability, 72 h, compound alone, read-out: Cellular assays EC50; for Toxicity rescue: MLN4924-mediated cytotoxicity rescue, 10 µM used where n.d. An outline of the steps:
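HEK293T–Cas9, 0.15 × 10^6 ml^−1; pretreat DMSO vs 100 nM MLN4924; drugs dispensed after 2 h; 3 d exposure; CellTiter-Glo; viability vs DMSO control.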

The next test deals with T1, CDK12–cyclin K and DDB1 (Homo sapiens, UniProt Q16531+Q9NYV4, K965R).
T1 construct: His6–CDK12 (a.a. 713–1,052); full-length or beta-propeller B domain deletion (ΔBPB: a.a. 396–705 deleted) constructs of His6–DDB1ΔBPB, StrepII–Avi–DDB1, or His6–Spy–DDB1; made in house; host or cells: Trichoplusia ni High Five insect cells (baculovirus)
T1 sequence (Q9NYV4 713-1052 K965R): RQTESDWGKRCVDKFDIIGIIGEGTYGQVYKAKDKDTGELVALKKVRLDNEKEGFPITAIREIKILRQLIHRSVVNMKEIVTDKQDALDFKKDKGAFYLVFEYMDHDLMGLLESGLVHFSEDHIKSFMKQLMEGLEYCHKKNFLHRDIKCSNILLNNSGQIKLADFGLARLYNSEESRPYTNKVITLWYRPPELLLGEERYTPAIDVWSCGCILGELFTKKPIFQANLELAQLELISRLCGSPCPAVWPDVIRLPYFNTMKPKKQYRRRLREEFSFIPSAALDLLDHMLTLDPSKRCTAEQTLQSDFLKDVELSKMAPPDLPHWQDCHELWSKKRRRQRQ
T1 sequence (O75909 1-267 partner): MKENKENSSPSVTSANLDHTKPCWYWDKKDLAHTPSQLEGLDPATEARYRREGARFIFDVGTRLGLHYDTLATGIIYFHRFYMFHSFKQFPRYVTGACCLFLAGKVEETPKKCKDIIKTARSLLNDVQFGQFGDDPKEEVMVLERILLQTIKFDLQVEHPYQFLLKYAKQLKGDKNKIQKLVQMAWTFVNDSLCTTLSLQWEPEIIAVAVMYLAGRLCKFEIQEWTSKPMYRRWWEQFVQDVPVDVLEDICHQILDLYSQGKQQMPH
T1 sequence (Q16531 whole entry): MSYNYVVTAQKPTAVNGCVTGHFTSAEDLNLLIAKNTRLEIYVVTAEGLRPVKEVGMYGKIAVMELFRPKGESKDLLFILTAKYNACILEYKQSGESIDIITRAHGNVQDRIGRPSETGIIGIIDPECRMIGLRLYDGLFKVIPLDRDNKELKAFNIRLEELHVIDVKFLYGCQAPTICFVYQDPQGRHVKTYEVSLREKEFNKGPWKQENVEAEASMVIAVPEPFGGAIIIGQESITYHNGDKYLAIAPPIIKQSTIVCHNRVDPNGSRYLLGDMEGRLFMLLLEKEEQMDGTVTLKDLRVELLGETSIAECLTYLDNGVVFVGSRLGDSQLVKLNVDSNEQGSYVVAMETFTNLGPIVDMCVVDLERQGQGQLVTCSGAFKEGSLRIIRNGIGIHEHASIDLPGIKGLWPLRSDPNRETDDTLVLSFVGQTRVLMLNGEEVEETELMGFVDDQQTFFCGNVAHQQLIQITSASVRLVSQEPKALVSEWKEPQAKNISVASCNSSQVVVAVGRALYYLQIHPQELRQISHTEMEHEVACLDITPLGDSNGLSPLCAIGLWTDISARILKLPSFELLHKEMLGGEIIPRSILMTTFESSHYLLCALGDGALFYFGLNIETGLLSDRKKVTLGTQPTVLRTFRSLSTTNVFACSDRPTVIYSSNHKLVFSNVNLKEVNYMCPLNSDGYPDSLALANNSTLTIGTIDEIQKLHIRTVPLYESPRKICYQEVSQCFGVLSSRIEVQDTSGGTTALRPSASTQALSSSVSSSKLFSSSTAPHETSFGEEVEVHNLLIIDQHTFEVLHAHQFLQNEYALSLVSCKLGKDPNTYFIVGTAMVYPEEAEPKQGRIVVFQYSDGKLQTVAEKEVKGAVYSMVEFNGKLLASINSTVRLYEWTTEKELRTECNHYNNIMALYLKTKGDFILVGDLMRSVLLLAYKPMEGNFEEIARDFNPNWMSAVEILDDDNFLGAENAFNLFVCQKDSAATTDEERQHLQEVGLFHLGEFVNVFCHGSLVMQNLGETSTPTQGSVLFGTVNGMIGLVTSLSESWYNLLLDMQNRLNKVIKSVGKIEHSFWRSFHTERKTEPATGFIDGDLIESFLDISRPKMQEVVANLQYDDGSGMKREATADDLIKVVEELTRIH
The test can be described thus: TR-FRET ternary complex formation assay (compound titration). The test is classed as binding. As to conditions: for TR-FRET signal at compound concentration: replicate titrations. The essentials:
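Signal was the ratio of 520 nm to 490 nm fluorescence, measured after a 70 μs delay that reduced background.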
Background: Time-resolved FRET reads energy transfer from a long-lived donor to a nearby acceptor.

For test [1], the system named is cyclin K–eGFP degradation reporter. As to the kind of experiment: Cyclin K reporter stability analysis (dual-color cyclin K–eGFP reporter). The test is classed as cell-based, human. Particulars: Supplementary Table 2; HEK293T cycK-eGFP reporter, 5 h; read-out: Cellular assays DC50. The essentials: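 A 5 h treatment of HEK293T–Cas9 cells expressing the degradation reporter preceded flow cytometry; eGFP over mCherry, normalized to DMSO.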

[2] abbreviates: Supplementary Table 2, read-out: TR-FRET EC50 TR-FRET.
The mark [3] stands for this setting: compound concentration 79.2001 nM.
[4] abbreviates: compound concentration 158.4 nM.
[5] abbreviates: compound concentration 309.6 nM.
Where [6] appears, read: compound concentration 626.401 nM.
Setting [7] is: compound concentration 1252.8 nM.
Setting [8] is: compound concentration 9936.01 nM.
Setting [9] is: compound concentration 20016 nM.
Setting [10] is: sheet MOESM7, read-out: log TR-FRET EC50 (converted).
[11] abbreviates: in vitro complex formation, 50 nM CDK12–cyclin K, 100 nM DDB1, text and figures, read-out: TR-FRET EC50.

Where “and” joins values, the source holds several entries; their conditions need not be identical. Identical values can stand only once. Like-named read-outs stand apart in the source and are kept apart here. Bounds are passed on as bounds.

In the case of `CC[C@H](CO)Nc1nc(NCCCC2CCCC2)c2ncn(C(C)C)c2n1` [DS33], the EC50 was over 10 µM in the test with HEK293T cells; 1.27 µM at CDK12–cyclin K and DDB1 (setting [2]); 1.27 µM on CDK12–cyclin K and DDB1 (setting [10]). Besides, the Toxicity rescue in the test with HEK293T cells is given as 0%. In addition, the “TR-FRET signal, individual replicate” value was 0.2064 and 0.239 on CDK12–cyclin K and DDB1 (compound concentration 4.68 nM); 0.2251 and 0.2479 on CDK12–cyclin K and DDB1 (compound concentration 21.6 nM); 0.2332 and 0.272 at CDK12–cyclin K and DDB1 (compound concentration 36 nM); 0.2704 and 0.303 at CDK12–cyclin K and DDB1 (setting [3]); 0.3276 and 0.3592 at CDK12–cyclin K and DDB1 (setting [4]); 0.4277 and 0.464 at CDK12–cyclin K and DDB1 (setting [5]). Further, the “TR-FRET signal, individual replicate” value on CDK12–cyclin K and DDB1 (setting [6]) is 0.5723 and 0.6562; at CDK12–cyclin K and DDB1 (setting [7]), 0.7875 and 0.9047; at CDK12–cyclin K and DDB1 (compound concentration 2448 nM), 1.007 and 1.15; at CDK12–cyclin K and DDB1 (setting [8]), 1.305 and 1.477; at CDK12–cyclin K and DDB1 (setting [9]), 1.367 and 1.47. Also, in test [1], the DC50 is over 10 µM.

As to `CC[C@H](CO)Nc1nc(NCCCc2ccco2)c2ncn(C(C)C)c2n1` [DS34], the EC50 with HEK293T cells is over 10 µM; at CDK12–cyclin K and DDB1 (setting [2]) it was 0.603 µM; at CDK12–cyclin K and DDB1 (setting [11]), 0.603 ± 0.062 µM; on CDK12–cyclin K and DDB1 (setting [10]) it was 0.603 µM. The Toxicity rescue in the test on HEK293T cells is 0%. Further, the “TR-FRET signal at compound concentration” value at CDK12–cyclin K and DDB1 (compound concentration 4.68 nM) was 0.2091 and 0.2292; at CDK12–cyclin K and DDB1 (compound concentration 21.6 nM), 0.229 and 0.2555; at CDK12–cyclin K and DDB1 (compound concentration 36 nM), 0.2532 and 0.2765; on CDK12–cyclin K and DDB1 (setting [3]), 0.311 and 0.3352; on CDK12–cyclin K and DDB1 (setting [4]), 0.3881 and 0.4084; at CDK12–cyclin K and DDB1 (setting [5]), 0.5012 and 0.4942. In addition, the “TR-FRET signal at compound concentration” value is 0.6373 and 0.6895 at CDK12–cyclin K and DDB1 (setting [6]); 0.7887 and 0.8649 at CDK12–cyclin K and DDB1 (setting [7]); 0.8803 and 0.974 on CDK12–cyclin K and DDB1 (compound concentration 2448 nM); 1.0289 and 1.143 at CDK12–cyclin K and DDB1 (setting [8]); 1.011 and 1.0565 at CDK12–cyclin K and DDB1 (setting [9]). Further, the DC50 in test [1] is over 10 µM.

As to `CC[C@H](CO)Nc1nc(NCCCc2ccnn2C)c2ncn(C(C)C)c2n1` [DS35], the EC50 with HEK293T cells is over 10 µM; on CDK12–cyclin K and DDB1 (setting [2]) it was 0.246 µM; at CDK12–cyclin K and DDB1 (setting [11]), 0.246 ± 0.01 µM; on CDK12–cyclin K and DDB1 (setting [10]) it was 0.246 µM. In addition, the Toxicity rescue with HEK293T cells is 0%. The “TR-FRET signal at compound concentration” value on CDK12–cyclin K and DDB1 (compound concentration 4.68 nM) is 0.1529 and 0.1552; on CDK12–cyclin K and DDB1 (compound concentration 21.6 nM), 0.228 and 0.2468; on CDK12–cyclin K and DDB1 (compound concentration 36 nM), 0.3788 and 0.4108; at CDK12–cyclin K and DDB1 (setting [3]), 0.6173 and 0.6444; at CDK12–cyclin K and DDB1 (setting [4]), 0.9157 and 0.9758; at CDK12–cyclin K and DDB1 (setting [5]), 1.283 and 1.333. The “TR-FRET signal at compound concentration” value on CDK12–cyclin K and DDB1 (setting [6]) was 1.6242 and 1.675; at CDK12–cyclin K and DDB1 (setting [7]), 1.8781 and 1.924; at CDK12–cyclin K and DDB1 (compound concentration 2448 nM), 2.069 and 2.096; on CDK12–cyclin K and DDB1 (setting [8]), 2.24 and 2.273; on CDK12–cyclin K and DDB1 (setting [9]), 2.144 and 2.245. The DC50 in test [1] is over 10 µM.

For the compound `CCCCN(CCCC)CCCNc1nc(N[C@H](CC)CO)nc2c1ncn2C(C)C` [DS36], in the test on HEK293T cells, the EC50 was over 10 µM. Further, the Toxicity rescue in the test on HEK293T cells is reported as 0%. Also, the “TR-FRET signal, individual replicate” value at CDK12–cyclin K and DDB1 (compound concentration 4.68 nM) was 0.2097 and 0.2275; at CDK12–cyclin K and DDB1 (compound concentration 21.6 nM) it was 0.2087 and 0.2297; on CDK12–cyclin K and DDB1 (compound concentration 36 nM), 0.2089 and 0.2353; on CDK12–cyclin K and DDB1 (setting [3]), 0.2163 and 0.2368; on CDK12–cyclin K and DDB1 (setting [4]), 0.2165 and 0.2428; on CDK12–cyclin K and DDB1 (setting [5]), 0.2214 and 0.244. The “TR-FRET signal, individual replicate” value is 0.2373 and 0.2728 on CDK12–cyclin K and DDB1 (setting [6]); 0.2487 and 0.3013 on CDK12–cyclin K and DDB1 (setting [7]); 0.2879 and 0.3168 at CDK12–cyclin K and DDB1 (compound concentration 2448 nM); 0.3262 and 0.358 at CDK12–cyclin K and DDB1 (setting [8]); 0.3249 and 0.3501 at CDK12–cyclin K and DDB1 (setting [9]). In test [1], the DC50 is over 10 µM.

As for `CC[C@H](CO)Nc1nc(NCCC2CC2)c2ncn(C(C)C)c2n1` [DS37], the EC50 in the test with HEK293T cells is over 10 µM. Also, the Toxicity rescue in the test on HEK293T cells is 0%. In addition, the “TR-FRET signal, individual replicate” value at CDK12–cyclin K and DDB1 (compound concentration 4.68 nM) is 0.1908 and 0.2636; on CDK12–cyclin K and DDB1 (compound concentration 21.6 nM) it was 0.201 and 0.2304; at CDK12–cyclin K and DDB1 (compound concentration 36 nM), 0.2177 and 0.2395; on CDK12–cyclin K and DDB1 (setting [3]), 0.2212 and 0.2472; at CDK12–cyclin K and DDB1 (setting [4]) it was 0.2411 and 0.2679; on CDK12–cyclin K and DDB1 (setting [5]), 0.2728 and 0.306. Further, the “TR-FRET signal, individual replicate” value on CDK12–cyclin K and DDB1 (setting [6]) is 0.3075 and 0.349; at CDK12–cyclin K and DDB1 (setting [7]) it was 0.3712 and 0.4097; on CDK12–cyclin K and DDB1 (compound concentration 2448 nM), 0.4307 and 0.4643; at CDK12–cyclin K and DDB1 (setting [8]), 0.5169 and 0.5543; at CDK12–cyclin K and DDB1 (setting [9]), 0.5088 and 0.5368. Moreover, the DC50 in test [1] was over 10 µM.

As for `CC[C@H](CO)Nc1nc(NCCC2CCCCCCC2)c2ncn(C(C)C)c2n1` [DS38], the concentration for a half-maximal effect (EC50) was over 10 µM in the test with HEK293T cells; 5.74 µM on CDK12–cyclin K and DDB1 (setting [2]); 5.74 µM on CDK12–cyclin K and DDB1 (setting [10]). Further, the Toxicity rescue in the test with HEK293T cells is recorded as 0%. The “TR-FRET signal, individual replicate” value was 0.1996 and 0.2467 on CDK12–cyclin K and DDB1 (compound concentration 4.68 nM); 0.2088 and 0.2442 on CDK12–cyclin K and DDB1 (compound concentration 21.6 nM); 0.2151 and 0.2401 on CDK12–cyclin K and DDB1 (compound concentration 36 nM); 0.2234 and 0.2572 on CDK12–cyclin K and DDB1 (setting [3]); 0.237 and 0.2667 at CDK12–cyclin K and DDB1 (setting [4]); 0.2597 and 0.2826 on CDK12–cyclin K and DDB1 (setting [5]). The “TR-FRET signal, individual replicate” value was 0.3077 and 0.3432 at CDK12–cyclin K and DDB1 (setting [6]); 0.3992 and 0.4242 at CDK12–cyclin K and DDB1 (setting [7]); 0.5328 and 0.5897 at CDK12–cyclin K and DDB1 (compound concentration 2448 nM); 1.042 and 1.049 at CDK12–cyclin K and DDB1 (setting [8]); 1.225 and 1.271 at CDK12–cyclin K and DDB1 (setting [9]). Besides, the DC50 in test [1] is over 10 µM.

Turning to `CC[C@H](CO)Nc1nc(NCCOCc2ccccc2)c2ncn(C(C)C)c2n1` [DS40], the EC50 was over 10 µM in the test on HEK293T cells; 1.3 µM at CDK12–cyclin K and DDB1 (setting [10]). In addition, in the test on HEK293T cells, the Toxicity rescue is 0%. The TR-FRET signal at CDK12–cyclin K and DDB1 (compound concentration 4.68 nM) is 0.2076 and 0.2321; at CDK12–cyclin K and DDB1 (compound concentration 21.6 nM) it was 0.2226 and 0.2483; at CDK12–cyclin K and DDB1 (compound concentration 36 nM), 0.2561 and 0.2746; on CDK12–cyclin K and DDB1 (setting [3]), 0.3133 and 0.3047; on CDK12–cyclin K and DDB1 (setting [4]) it was 0.4014 and 0.4131; at CDK12–cyclin K and DDB1 (setting [5]) it was 0.5676 and 0.5799. Besides, the TR-FRET signal on CDK12–cyclin K and DDB1 (setting [6]) was 0.7977 and 0.8028; at CDK12–cyclin K and DDB1 (setting [7]) it was 1.088 and 1.118; at CDK12–cyclin K and DDB1 (compound concentration 2448 nM) it was 1.44 and 1.508; on CDK12–cyclin K and DDB1 (setting [8]) it was 1.852 and 2.056; at CDK12–cyclin K and DDB1 (setting [9]) it was 1.876 and 2.063. Besides, in test [1], the DC50 is over 10 µM.
